From patent US20260297070A1, “CYCLIC [COMPOUND LEFT OUT] WRN INHIBITORS” (Nimbus Wadjet, Inc., priority 2023, published 2026)
pIC50: −log10 of the molar value.

The compounds below were run against T1, human Werner helicase (WRN-BV08, Uniprot Q14191, amino acids 517-1235 with L1074F point mutation) (Homo sapiens, UniProt Q14191, L1074F) (assay: WRN (BV08) ADP-Glo Assay). Details: 0.15 nM WRN, 5 μM ATP, 0.1 nM DNA duplex, 15 min preincubation, 60 min at 25° C., pH 7.5, 1% DMSO; read-out: ADP-Glo_hWRN_IC50.
T1 construct: Uniprot Q14191, amino acids 517-1235 with L1074F point mutation; TEV-cleavable 8×His (C, cleaved yes); made in house; host or cells: Sf9 insect cells (baculovirus)
Assay type: biochemical
How it was run: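 Helicase ATPase activity is measured at 25 °C over 60 min using 0.15 nM enzyme, 5 μM ATP and 0.1 nM DNA duplex, final DMSO 1%. ADP production is detected by luminescence, with IC50 derived by curve fitting.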

T1 sequence (Q14191 with tags, fused parts or gaps L1074F limits assumed): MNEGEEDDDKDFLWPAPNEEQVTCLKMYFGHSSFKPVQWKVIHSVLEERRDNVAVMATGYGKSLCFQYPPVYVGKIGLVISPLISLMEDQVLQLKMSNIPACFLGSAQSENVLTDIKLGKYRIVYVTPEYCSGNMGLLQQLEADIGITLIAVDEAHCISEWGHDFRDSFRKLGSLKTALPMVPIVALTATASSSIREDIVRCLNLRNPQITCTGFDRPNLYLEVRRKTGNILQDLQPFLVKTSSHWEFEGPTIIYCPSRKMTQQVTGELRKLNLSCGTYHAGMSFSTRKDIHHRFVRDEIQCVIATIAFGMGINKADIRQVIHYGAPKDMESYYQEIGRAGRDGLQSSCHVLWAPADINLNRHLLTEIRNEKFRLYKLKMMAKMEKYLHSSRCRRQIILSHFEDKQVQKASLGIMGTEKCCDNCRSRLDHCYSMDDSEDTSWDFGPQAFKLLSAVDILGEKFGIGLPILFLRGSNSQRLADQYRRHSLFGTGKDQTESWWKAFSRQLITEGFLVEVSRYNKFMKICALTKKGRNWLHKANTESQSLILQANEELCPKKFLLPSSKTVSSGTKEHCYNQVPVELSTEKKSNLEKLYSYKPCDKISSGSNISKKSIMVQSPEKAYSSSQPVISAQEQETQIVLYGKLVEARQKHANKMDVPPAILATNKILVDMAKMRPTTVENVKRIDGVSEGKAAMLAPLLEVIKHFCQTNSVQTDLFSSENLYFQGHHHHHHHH

Row | SMILES | pIC50
1 | O=C(Cc1ccc(-c2ccc(F)cc2)cc1F)N(Cc1ccnc(OC2CC2)c1)C1C=CS(=O)(=O)C1 (centres unmarked) [I-110, N-[(2-cyclopropoxypyridin-4-yl)methyl]-2-{3,4′-difluoro-[1,1′-biphenyl]-4-yl}-N-(1,1-dioxo-2,3-dihydro-1lambda6-thiophen-3-yl)acetamide] | 5.30 to 6.30
2 | Cc1cccn1-c1ccc(CC(=O)N(Cc2ccnc3c2CCC3(C)O)C2C=CS(=O)(=O)C2)c(F)c1 (centres unmarked) [I-78, N-(1,1-dioxo-2,3-dihydro-1lambda6-thiophen-3-yl)-2-[2-fluoro-4-(2-methyl-1H-pyrrol-1-yl)phenyl]-N-({7-hydroxy-7-methyl-5H,6H,7H-cyclopenta[b]pyridin-4-yl}methyl)acetamide] | > 6.30
3 | O=C(Cc1ccc(-c2ccc(F)c(F)c2)cc1)N(Cc1ccncc1)C1C=CS(=O)(=O)C1 (centres unmarked) [I-143, 2-{3′,4′-difluoro-[1,1′-biphenyl]-4-yl}-N-(1,1-dioxo-2,3-dihydro-1lambda6-thiophen-3-yl)-N-[(pyridin-4-yl)methyl]acetamide] | 5.30 to 6.30
4 | Cc1cccn1-c1ccc(CC(=O)N(Cc2ccc(Br)cc2)C2C=CS(=O)(=O)C2)c(F)c1 (centres unmarked) [I-100, N-[(4-bromophenyl)methyl]-N-(1,1-dioxo-2,3-dihydro-1lambda6-thiophen-3-yl)-2-[2-fluoro-4-(2-methyl-1H-pyrrol-1-yl)phenyl]acetamide] | 5.30 to 6.30
5 | NCCc1cccn1-c1ccc(CC(=O)N(Cc2ccccc2)C2C=CS(=O)(=O)C2)cc1 (centres unmarked) [I-268, 2-{4-[2-(2-aminoethyl)-1H-pyrrol-1-yl]phenyl}-N-benzyl-N-(1,1-dioxo-2,3-dihydro-1lambda6-thiophen-3-yl)acetamide] | 5.00 to 5.30
6 | COC(C(=O)N(Cc1ccnc(C(C)(C)O)c1)[C@@H]1C=CS(=O)(=O)C1)c1ccc(-c2ccc(F)c(F)c2)cc1F (single isomer, unassigned) [I-2] | > 6.30
7 | CC(C)(O)c1cc(CN(C(=O)Cc2ccc(-c3cc(F)c(F)c(F)c3)cc2F)C2C=CS(=O)(=O)C2)ccn1 (centres unmarked) [I-19, N-(1,1-dioxo-2,3-dihydro-1lambda6-thiophen-3-yl)-N-{[2-(2-hydroxypropan-2-yl)pyridin-4-yl]methyl}-2-{3,3′,4′,5′-tetrafluoro-[1,1′-biphenyl]-4-yl}acetamide] | > 6.30
8 | CN(C)C(=O)C(C(=O)N(Cc1nc(C2CC2)cs1)C1C=CS(=O)(=O)C1)c1ccc(-c2ccc(F)cc2)cc1F (centres unmarked) [I-23, N′-[(4-cyclopropyl-1,3-thiazol-2-yl)methyl]-2-{3,4′-difluoro-[1,1′-biphenyl]-4-yl}-N′-(1,1-dioxo-2,3-dihydro-1lambda6-thiophen-3-yl)-N,N-dimethylpropanediamide] | > 6.30
9 | O=C(Cc1ccc(-n2cccc2)cc1)N(Cc1nc(C(F)(F)F)cs1)C1C=CS(=O)(=O)C1 (centres unmarked) [I-145, N-(1,1-dioxo-2,3-dihydro-1lambda6-thiophen-3-yl)-2-[4-(1H-pyrrol-1-yl)phenyl]-N-{[4-(trifluoromethyl)-1,3-thiazol-2-yl]methyl}acetamide] | 5.30 to 6.30
10 | O=C(Cc1ccc(C2CCCCC2)cc1)N(Cc1ccncc1)C1C=CS(=O)(=O)C1 (centres unmarked) [I-164, 2-(4-cyclohexylphenyl)-N-(1,1-dioxo-2,3-dihydro-1lambda6-thiophen-3-yl)-N-[(pyridin-4-yl)methyl]acetamide] | 5.30 to 6.30
11 | COc1cc(CN(C(=O)C2Cc3cc(-n4cccc4C)ccc32)C2C=CS(=O)(=O)C2)ccn1 (centres unmarked) [I-132, N-(1,1-dioxo-2,3-dihydro-1lambda6-thiophen-3-yl)-N-[(2-methoxypyridin-4-yl)methyl]-3-(2-methyl-1H-pyrrol-1-yl)bicyclo[4.2.0]octa-1,3,5-triene-7-carboxamide] | 5.30 to 6.30

The remaining lines, values ahead:

Row | pIC50 | SMILES
12 | < 4.30 | O=C(Cc1cnn(C2CC2)c1)N(Cc1ccncc1)C1C=CS(=O)(=O)C1 (centres unmarked) [I-582, 2-(1-cyclopropyl-1H-pyrazol-4-yl)-N-(1,1-dioxo-2,3-dihydro-1lambda6-thiophen-3-yl)-N-[(pyridin-4-yl)methyl]acetamide]
13 | < 4.30 | O=C([C@H]1CC[C@@H](Cn2cccn2)O1)N(Cc1ccncc1)C1C=CS(=O)(=O)C1 (mixture of isomers) [I-716, rac-(2R,5S)-N-(1,1-dioxo-2,3-dihydro-1lambda6-thiophen-3-yl)-5-[(1H-pyrazol-1-yl)methyl]-N-[(pyridin-4-yl)methyl]oxolane-2-carboxamide]
14 | 4.30 to 5.00 | O=C(Cc1ccc(-c2ccc(F)cc2)cc1CO)N(Cc1ccncc1)C1C=CS(=O)(=O)C1 (centres unmarked) [I-350, N-(1,1-dioxo-2,3-dihydro-1lambda6-thiophen-3-yl)-2-[4′-fluoro-3-(hydroxymethyl)-[1,1′-biphenyl]-4-yl]-N-[(pyridin-4-yl)methyl]acetamide]
15 | > 6.30 | CC(C)(O)COc1cc(CN(C(=O)Cc2ccc(S(F)(F)(F)(F)F)cc2)C2C=CS(=O)(=O)C2)ccn1 (centres unmarked) [I-768, N-(1,1-dioxo-2,3-dihydro-1lambda6-thiophen-3-yl)-N-{[2-(2-hydroxy-2-methylpropoxy)pyridin-4-yl]methyl}-2-[4-(pentafluoro-lambda6-sulfanyl)phenyl]acetamide]
16 | 4.30 to 5.00 | CC(=O)N(C)C(C(=O)N(Cc1ccncc1)C1C=CS(=O)(=O)C1)c1ccc(-c2ccc(F)cc2)cc1 (single isomer, unassigned) [I-282]
17 | < 4.30 | CC(=O)N(C)C(C(=O)N(Cc1ccncc1)C1C=CS(=O)(=O)C1)c1ccc(-c2ccc(F)cc2)cc1 (single isomer, unassigned) [I-378]
18 | 5.00 to 5.30 | CC(C)(N)c1ccc(CN(C(=O)Cc2ccc(S(F)(F)(F)(F)F)cc2)C2C=CS(=O)(=O)C2)cc1 (centres unmarked) [I-700, N-{[4-(2-aminopropan-2-yl)phenyl]methyl}-N-(1,1-dioxo-2,3-dihydro-1lambda6-thiophen-3-yl)-2-[4-(pentafluoro-lambda6-sulfanyl)phenyl]acetamide]
19 | 5.30 to 6.30 | CNC(=O)C(C(=O)N(Cc1ccnc(C(C)(C)O)c1)C1C=CS(=O)(=O)C1)c1ccc(-c2ccc(F)c(F)c2)cc1F (single isomer, unassigned) [I-690, (2R**)-N′-[(3R*)-1,1-dioxo-2,3-dihydro-1lambda6-thiophen-3-yl]-N′-{[2-(2-hydroxypropan-2-yl)pyridin-4-yl]methyl}-N-methyl-2-{3,3′,4′-trifluoro-[1,1′-biphenyl]-4-yl}propanediamide]
20 | 5.30 to 6.30 | O=C(Cn1cc2cc(C(F)(F)F)ccc2n1)N(Cc1ccncc1)C1C=CS(=O)(=O)C1 (centres unmarked) [I-589, N-(1,1-dioxo-2,3-dihydro-1lambda6-thiophen-3-yl)-N-[(pyridin-4-yl)methyl]-2-[5-(trifluoromethyl)-2H-indazol-2-yl]acetamide]
21 | < 4.30 | COc1ccc2c(c1)CC(C(=O)N(Cc1ccncc1)C1C=CS(=O)(=O)C1)CO2 (centres unmarked) [I-756, N-(1,1-dioxo-2,3-dihydro-1lambda6-thiophen-3-yl)-6-methoxy-N-[(pyridin-4-yl)methyl]-3,4-dihydro-2H-1-benzopyran-3-carboxamide]
22 | < 4.30 | N#CCOc1ccc(CC(=O)N(Cc2ccncc2)C2C=CS(=O)(=O)C2)cc1 (centres unmarked) [I-432, 2-[4-(cyanomethoxy)phenyl]-N-(1,1-dioxo-2,3-dihydro-1lambda6-thiophen-3-yl)-N-[(pyridin-4-yl)methyl]acetamide]
23 | < 4.30 | O=C(C1CC(c2ccncc2)=NO1)N(Cc1ccncc1)C1C=CS(=O)(=O)C1 (centres unmarked) [I-621, N-(1,1-dioxo-2,3-dihydro-1lambda6-thiophen-3-yl)-3-(pyridin-4-yl)-N-[(pyridin-4-yl)methyl]-4,5-dihydro-1,2-oxazole-5-carboxamide]
